Experimental data from the supplement of paper PMC10307832.

Key:
Assay in all cases: relative viability (nuclei count vs DMSO), 5 days (fraction); higher = more cells survive
[1] = compound: CCN(CCO)CCCC(C)Nc1ccnc2cc(Cl)ccc12 [Hydroxychloroquine] + C[C@@H](Oc1cc(-c2cnn(C3CCNCC3)c2)cnc1N)c1c(Cl)ccc(F)c1Cl [Crizotinib] (partner 1 µM)
Procedure, shortened: (§1)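 Relative viability equals treated-well nuclei counts divided by vehicle-well nuclei counts. Counts came from 4× images of lung cancer cell lines grown in 1536-well plates for 5 days after pin-tool dosing on the day after seeding. Dosing used one drug alone or a fixed anchor-drug dose plus five library-drug doses (not always all listed) in √10 steps, and values are medians of duplicate plates.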

[2] = compound: CCN(CCO)CCCC(C)Nc1ccnc2cc(Cl)ccc12 [Hydroxychloroquine] + Nc1nc2[nH]cc(CCc3ccc(C(=O)N[C@@H](CCC(=O)O)C(=O)O)cc3)c2c(=O)[nH]1 [Pemetrexed] (partner 0.2 µM)
Procedure, shortened: as §1

[3] = compound: CCN(CCO)CCCC(C)Nc1ccnc2cc(Cl)ccc12 [Hydroxychloroquine] + Cc1nc(Nc2ncc(C(=O)Nc3c(C)cccc3Cl)s2)cc(N2CCN(CCO)CC2)n1 [Dasatinib] (partner 0.075 µM)
Procedure, shortened: as §1

[4] = compound: CCN(CCO)CCCC(C)Nc1ccnc2cc(Cl)ccc12 [Hydroxychloroquine] + CS(=O)(=O)CCNCc1ccc(-c2ccc3ncnc(Nc4ccc(OCc5cccc(F)c5)c(Cl)c4)c3c2)o1 [Lapatinib] (partner 2 µM)
Procedure, shortened: as §1

Row | Cell Line | relative viability ([1]; first compound 0.5 µM) | relative viability ([1]; first compound 1.581 µM) | relative viability ([1]; first compound 5 µM) | relative viability ([1]; first compound 15.81 µM) | relative viability ([1]; first compound 50 µM) | relative viability ([2]; first compound 0.5 µM) | relative viability ([2]; first compound 1.581 µM) | relative viability ([2]; first compound 5 µM) | relative viability ([2]; first compound 15.81 µM) | relative viability ([2]; first compound 50 µM) | relative viability ([3]; first compound 0.5 µM) | relative viability ([3]; first compound 1.581 µM) | relative viability ([3]; first compound 5 µM) | relative viability ([3]; first compound 15.81 µM) | relative viability ([3]; first compound 50 µM) | relative viability ([4]; first compound 0.5 µM) | relative viability ([4]; first compound 1.581 µM) | relative viability ([4]; first compound 5 µM) | relative viability ([4]; first compound 15.81 µM) | relative viability ([4]; first compound 50 µM)
1 | HCC-366 | 0.698 | 0.607 | 0.402 | 0.514 | 0.612 | 0.157 | 0.151 | 0.14 | 0.18 | 0.177 | 0.739 | 0.731 | 0.624 | 0.768 | 0.719 | 0.968 | 1.06 | 1.02 | 1.15 | 1.19
2 | HOP-62 | 0.954 | 0.836 | 0.843 | 1.05 | 0.744 | 0.331 | 0.312 | 0.33 | 0.344 | 0.343 | 0.57 | 0.601 | 0.717 | 0.636 | 0.58 | 1.07 | 0.889 | 1.1 | 0.98 | 1.04
3 | NCI-H1944 | 1.07 | 1.06 | 1.07 | 1.04 | 1.19 | 0.691 | 0.586 | 0.531 | 0.586 | 0.648 | 0.206 | 0.184 | 0.23 | 0.202 | 0.194 | 0.762 | 0.755 | 0.797 | 0.867 | 0.967
4 | UMC-11 | 0.586 | 0.573 | 0.69 | 0.664 | 0.846 | 0.751 | 0.751 | 0.826 | 0.976 | 0.825 |  | 0.504 | 0.473 | 0.628 | 0.6 | 0.829 | 0.735 | 0.982 | 1.1 | 1.13
5 | LU99A | 0.566 | 0.533 | 0.593 | 0.606 | 0.66 | 0.179 | 0.194 | 0.157 | 0.198 | 0.206 | 0.47 | 0.502 | 0.714 | 0.613 | 0.612 | 1.05 | 0.937 | 0.871 | 1.08 | 1.01
6 | NCI-H650 | 0.787 | 0.63 |  | 0.675 | 0.835 | 0.979 | 0.868 | 0.966 | 1.06 | 0.889 | 0.501 | 0.405 | 0.446 | 0.458 | 0.479 | 0.894 | 0.862 |  | 0.892 | 1.09
7 | A-427 | 0.935 | 0.869 | 0.94 | 0.838 | 0.973 | 0.948 | 1.05 | 0.926 | 0.838 | 1.01 | 0.748 | 0.67 | 0.774 | 0.649 | 0.796 | 0.996 | 0.955 | 1.07 | 1.01 | 1.09
8 | COR-L 105 | 0.871 | 0.838 | 0.901 | 0.835 | 0.79 | 1.12 | 1.01 | 0.967 | 1.05 | 1.08 | 0.284 | 0.384 | 0.34 | 0.298 | 0.272 | 0.369 | 0.37 | 0.346 | 0.318 | 0.327
9 | NCI-H460 | 0.985 | 0.91 | 0.938 | 0.745 | 0.952 | 0.0632 | 0.055 | 0.0674 | 0.0549 | 0.0607 | 0.576 | 0.481 | 0.457 | 0.527 | 0.599 | 1.03 | 1.05 | 0.778 | 1.55 | 1.5
